In patent publication US10021881B2, “Vaporized administration of pesticides” (priority 2016, dated 2018):

Assay: Thermo Gravity Analysis (TGA) degradation temperature
Type: physicochemical
Conditions: for temperature at which degradation began (TGA): ramp 10° C. per minute to 300° C.
Protocol: This example relates to experiments performed to determine the degradation temperatures of pyrimethanil technical compounds and fungicide samples. In the present example, pyrimethanil compounds from China (compound 1) and Europe (compound 2) were analyzed by Thermo Gravity Analysis (TGA). The pyrimethanil samples were run in both air and nitrogen atmospheres on the Q5000 TGA instrument (TA Instruments) equipped in open platinum pans, and using standard TGA test methods as follows: select gas 1 and 2, data storage on, ramp at 10° C. per minute to 300° C., data storage off, and end method. An isothermal method was also performed according to standard methods.

Cc1cc(C)nc(Nc2ccccc2)n1 [compound 1]
temperature at which degradation began (TGA) (in air): about 120.3 °C
temperature at which degradation was complete (TGA) (in both air and nitrogen): about 200 °C
temperature at which degradation began (TGA) (in nitrogen): about 120.6 °C
